From patent US8202910B2 (Sequella, Inc., priority 2006, dated 2012)
≈ marks a conversion by molar mass, not a printed value. Where “and” joins values, the source holds several entries; their conditions need not be identical. Identical values can stand only once. Entries after “also recorded” stand apart in the source; their conditions may differ. Like-named read-outs stand apart in the source and are kept apart here.

How the values were obtained:
M. bovis = assay: microbe, parasite or virus in culture; format: cell-based; details: Mycobacterium tuberculosis variant bovis
Candida albicans = assay: Spectrum of activity MIC, broth microdilution NCCLS M27-A2 (yeast); format: cell-based
Description: Compound 109 was tested against a representative panel of commonly encountered clinical microorganisms comprising opportunistic pathogens, target pathogens and normal human flora. The spectrum of activity of compound 109 was evaluated by performing recommended broth microdilution methods. NCCLS M27-A2, 2003 for yeast and NCCLS M38-A, 2003 for mold.

[1] = PK, tissue distribution, excretion and metabolism of compound 109 in mice; format: in vivo; set-up: Amount cumulatively excreted, Feces / Amount cumulatively excreted, Urine: unit not given here; details: for half-life: read-out: T1/2 el (converted)
Description: Initially, analytical methods for determination of the compounds had been developed that allowed to carry out all the PK experiments, sec FIG. 29. Here is a brief description of the experiment: (1) plasma spiked with tested compounds and 10 uL of Terfenadine or plasma samples (200 uL) added; (2) ACN (2 mL) added to precipitate protein and spin at 2,500 rpm; (3) evaporate supernatant to dryness; (4) add 200 uL of the diluting solvent: methanol (with 0.1% of trifluoroacetic acid): ammonium acetate (80/20); (5) vortex, spin, and use supernatant; (6) run LC/MS/MS on Sciex API 3000.
Conjugated metabolites are products of the typical metabolic pathway N-glucoronidation formed by reaction with glucuronic acid (D. A. Williams and T. L. Lemke in Foye's Principals of Medicinal Chemistry, 5th Ed., p.202).

M. tuberculosis H37Rv [2] = assay: Standard chronic mouse model of tuberculosis, CFU in lung; format: in vivo, C57BL/6 female mice
[3] = test system: RIF^R M. tuberculosis isolate 2482; assay: microbe, parasite or virus in culture; format: cell-based; details: Mycobacterium tuberculosis, read-out: MIC (BACTEC)
[4] = test system: H37Rv strain of Mycobacterium tuberculosis; assay: microbe, parasite or virus in culture; format: cell-based
M. tuberculosis [MTB] = assay: Spectrum of activity MIC, BACTEC 460 TB system; format: cell-based; details: Mycobacterium tuberculosis
M. smegmatis = assay: Spectrum (unpublished data); format: cell-based
M. marinum = assay: Spectrum of activity MIC, MOTT, agar proportion method; format: cell-based; details: Mycobacterium marinum; three strains
M. avium = assay: Spectrum (unpublished data); format: cell-based
[5] = test system: muscarinic receptor (M, non-selective); assay: CEREP receptor binding, muscarinic M; details: tested at 10 μM
Source text: (§1) In vitro testing for safety pharmacology and early ADMET (Absorption, Distribution, Metabolism, Excretion, Toxicity) studies of compound 109 were contracted out to CEREP (15318 NE 95th Street, Redmond, Wash., 98052, USA www.cerep.com) under a service agreement and included evaluation of inhibitory binding to a panel of 27 standard receptors and three transporters (See FIG. 60 (Table 31) and FIG. 61 (Table 32)) which included: adenosine receptors (A1 and A2A), adrenergic receptors (alpha 1, alpha 2, beta 1), angiotensin II receptor (AT1), benzodiazapene receptor (BZD), bradykinin receptor (B2), cholecystokinin receptor (CCK1), dopamine receptors (D1, D2S), endothelin receptor (ETA), GABA receptor (GABA), glutamate receptor (NMDA), histamine receptor (H1 central), melanocortin receptor (MC4), muscarinic receptor (M, non-selective), neurokinin receptor (NK1), neuropeptide Y receptor (Y), nicotinic receptor (neuronal, alpha-BGTX-insensitive), opiate receptor (non-selective opiate), orphanin receptor (ORL1), phencyclidine receptor (PCP), serotonin receptor (5-HT), sigma receptor (sigma non-selective), steroid receptor (glucocorticoid receptor, GR), and NE, DA, and 5-HT transporters.
(§2) The specific ligand binding to the receptors is defined as the difference between the total binding and the nonspecific binding determined in the presence of an excess of unlabelled ligand.

wild type of M.tb = assay: MIC, secondary screening, wild type; format: cell-based, Mycobacterium tuberculosis; details: Mycobacterium tuberculosis, WT
dopamine receptor D2S = biological target: T1, dopamine receptor D2S (Homo sapiens, UniProt P14416); assay: CEREP receptor binding, D2S; details: tested at 10 μM; read-out: inhibition of control specific binding
T1 construct: CEREP (contract testing)
Source text: as §1, §2

M. bovis BCG = assay: microbe, parasite or virus in culture; format: cell-based; details: Mycobacterium tuberculosis variant bovis BCG
cells = assay: LD50 for selectivity index (Table 10); format: cell-based, Mycobacterium tuberculosis
Source text: Table 10 lists MIC and LD50 data for selected compounds. […] Table 11 lists MIC data for purified substituted ethylene diamines in comparison to ethambutol (EMB).

M. tuberculosis H37Rv [6] = assay: MIC by BACTEC 460; format: cell-based, Mycobacterium tuberculosis; details: Mycobacterium tuberculosis, H37RV; read-out: MIC (BACTEC)

T1 sequence (P14416 1-414 isoform P14416-2): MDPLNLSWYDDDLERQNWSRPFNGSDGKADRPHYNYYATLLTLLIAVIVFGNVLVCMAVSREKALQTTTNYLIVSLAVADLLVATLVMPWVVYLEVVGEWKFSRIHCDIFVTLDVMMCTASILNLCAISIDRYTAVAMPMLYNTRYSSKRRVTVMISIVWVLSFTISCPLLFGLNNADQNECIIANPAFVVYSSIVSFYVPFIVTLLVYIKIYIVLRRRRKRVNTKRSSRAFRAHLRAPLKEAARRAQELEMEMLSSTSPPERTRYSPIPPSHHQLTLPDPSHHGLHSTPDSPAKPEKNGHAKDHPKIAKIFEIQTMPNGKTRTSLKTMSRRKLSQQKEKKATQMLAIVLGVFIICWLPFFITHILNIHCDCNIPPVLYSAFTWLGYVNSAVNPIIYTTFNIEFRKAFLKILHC

With `CC(C)=CCC/C(C)=C/CNCCNC1C2CC3CC(C2)CC1C3` (stereo not drawn) [Compound 109, N-Geranyl-N′-(2-adamanthyl)ethane-1,2-diamine] the MIC (M. bovis) was 0.25 µg/mL (≈ 0.756 µM), the MIC (Candida albicans) was 4 to 8 µg/mL (≈ 12.1 to 24.2 µM) and the “Amount cumulatively excreted, Feces” value ([1]; 3 mg/kg i.v., 0-4 h) was under 0.01. For the same molecule, the “Amount cumulatively excreted, Urine” value ([1]; 3 mg/kg i.v., 0-4 h, unit not given) was under 0.01, the “Amount cumulatively excreted, Feces” value ([1]; 3 mg/kg i.v., 4-8 h) was 0.01 and the “Amount cumulatively excreted, Urine” value ([1]; 3 mg/kg i.v., 4-8 h) was under 0.01. The “Amount cumulatively excreted, Feces” value ([1]; 3 mg/kg i.v., 8-24 h) was 0.04, the “Amount cumulatively excreted, Urine” value ([1]; 3 mg/kg i.v., 8-24 h) was 0.03 and the “Amount cumulatively excreted, Feces” value ([1]; 3 mg/kg i.v., 24-32 h) was under 0.01. The “Amount cumulatively excreted, Urine” value ([1]; 3 mg/kg i.v., 24-32 h) was 0.01, the “Amount cumulatively excreted, Feces” value ([1]; 3 mg/kg i.v., Total 0-32 h) was 0.06 and the “Amount cumulatively excreted, Urine” value ([1]; 3 mg/kg i.v., Total 0-32 h) was 0.04. For the same molecule, the “Amount cumulatively excreted, Feces” value ([1]; 25 mg/kg p.o., 0-4 h) was 0.48, the “Amount cumulatively excreted, Feces” value ([1]; 25 mg/kg p.o., 4-8 h) was 0.31 and the “Amount cumulatively excreted, Feces” value ([1]; 25 mg/kg p.o., 8-24 h) was 1.12. The “Amount cumulatively excreted, Feces” value ([1]; 25 mg/kg p.o., 24-32 h) was 0.08, the “Amount cumulatively excreted, Feces” value ([1]; 25 mg/kg p.o., Total 0-32 h) was 2.0 and the tissue distribution ([1]; i.v. 3 mg/kg, p.o. 25 mg/kg) was “primarily distributes into the lungs and spleen”. The “plasma level relative to MBC” value ([1]; iv or p.o.) was “reaches and exceeds its Minimum Bactericidal Concentration”, the “metabolites (breakdown products) in urine” value ([1]; mouse urine) was “did not provide evidence of breakdown products” and the “conjugated (N-glucoronidation) metabolites in urine” value ([1]; mouse urine, first 24 hr) was “No glucoronidation metabolites; also recorded: no evidence for the formation of conjugated metabolites”. The “total amount after excretion (urine and feces)” value ([1]; mouse, in vivo) was ≤ 3 % of the delivered dose, the total clearance ([1]; mouse, in vivo) was “less than hepatic blood flow” and the AUC ([1]; mouse, in vivo, iv, 3 mg/kg) was 792 ng·h/mL. For the same molecule, the Cmax ([1]; mouse, in vivo, iv, 3 mg/kg) was 1040 ng/mL, the Tmax ([1]; mouse, in vivo, iv, 3 mg/kg) was 0 h and the clearance ([1]; mouse, in vivo, iv, 3 mg/kg) was 63.1 mL/min/kg. For the same molecule, the half-life ([1]; mouse, in vivo, iv, 3 mg/kg) was 3.5 h, the Vd ([1]; mouse, in vivo, iv, 3 mg/kg, read-out: Vdss) was 11.8 L/kg and the AUC ([1]; mouse, in vivo, po, 25 mg/kg) was 254 ng·h/mL. The Cmax ([1]; mouse, in vivo, po, 25 mg/kg) was 135 ng/mL, the Tmax ([1]; mouse, in vivo, po, 25 mg/kg) was 0.31 h and the bioavailability ([1]; mouse, in vivo, po, 25 mg/kg) was 3.8%. The half-life ([1]; mouse, in vivo, po, 25 mg/kg) was 5.2 h, the CFU in lung (M. tuberculosis H37Rv [2]; INH+RIF+SQ109 at 25, 20 and 10 mg/kg, wk 4) was 3.2 log10CFU and the CFU in lung (M. tuberculosis H37Rv [2]; SQ109 by itself, 4 week therapy, control untreated 8.1) was 6.6 log10CFU. The CFU in lung (M. tuberculosis H37Rv [2]; combination SQ109+RIF at 10 and 20 mg/kg, 4 week therapy) was 4.8 log10, the MIC [3] was 0.32 µg/mL (≈ 0.968 µM) and the “MIC” value [4] was 1.953 µM and 1.95 µM. The MIC ([4]; Mycobacterium tuberculosis, H37RV, Table 10, from uM and MW, read-out: MIC) was 0.879 µg/mL, the MIC ([4]; Mycobacterium tuberculosis, H37RV, Table 10, read-out: MIC) was 1.95 µM and the MIC ([4]; Mycobacterium tuberculosis, H37RV, Table 15, read-out: MIC) was 1.56 µM. For the same molecule, the MIC ([4]; Mycobacterium tuberculosis, H37RV, previously determined, read-out: MIC by micro-broth dilution) was 0.2 µM and 0.11 µg/mL, the MIC ([4]; Mycobacterium tuberculosis, H37RV, read-out: MIC) was 1.95 µM and the MIC (M. tuberculosis [MTB]) was 0.25 to 0.5 µg/mL (≈ 0.756 to 1.51 µM). The activity (M. smegmatis) was “much less active”, the MIC (M. marinum) was 8 µg/mL (≈ 24.2 µM) and the activity (M. avium) was “much less active”. The “inhibition of control specific binding” value [5] was 96%, the MIC (wild type of M.tb; value in brackets, read-out: MIC (or uM)) was 0.18 µM and the MIC (wild type of M.tb; EMB, RL241, Cmpd#59 as 2HCl salt, Cmpd#109 as 2CF3COOH salt, read-out: MIC) was 0.1 µg/mL. For the same molecule, the inhibition at 10 µM (dopamine receptor D2S) was 73%, the MIC (M. bovis BCG) was 0.5 µg/mL (≈ 1.51 µM) and the “SI (Selectivity Index)” value (cells; LD50 : MIC) was 16.39. For the same molecule, the “LD50” value (cells; concentration at which 50% of the cells are killed) was 32 µM, the “LD50” value (cells; from uM and MW) was 14.4 µg/mL and the MIC (M. tuberculosis H37Rv [6]) was 0.32 µg/mL (≈ 0.968 µM).
